The source of these data is US6531148B1, “Therapeutic agents” (Takara Shuzo Co., Ltd., priority 1998, dated 2003).

The test system of test [1] is Ehrlich's carcinoma cells. The test can be described thus: Carcinostatic activity test, Ehrlich's carcinoma. The class given is in vivo, mice. Conditions: for carcinostatic activity: mouse, in vivo; for 30-day survival number: 6 mice per group, control 0; for Average days of survival: 30 days observation, control 14.3. The procedure: (2) Ehrlich's carcinoma cells were administered to 18 female ddY mice (5 weeks old, weighing about 25 g) intraperitoneally (1.2×10^6 cells/mouse). Observation was continued for 30 days. The average days of survival, the prolongation rate and the 30-day survival number were then calculated. Mice were divided into 3 group each consisting of 6 mice. One was a control group, and other two groups received DGE at 2 mg/kg and 20 mg/kg, respectively. DGE was intraperitoneally administered for 4 days from the day after the administration of cancer.

The subject of test [2] is α-glucosidase from rat small intestine mucous membrane. The test can be described thus: α-Glucosidase inhibition test (crude enzyme from rat small intestine). Format: biochemical. To be noted: for relative activity: control without DGE = 100%. The procedure: (2) A crude enzyme preparation of α-glucosidase from rat small intestine mucous membrane [prepared according to the method as described in Arne Dahlqvist, Anal. Biochem., 7:18-25 (1964)] was used to measure the activity of inhibiting α-glucosidase of DGE as follows.
For the enzymatic reaction, 80 μl of a solution of sucrose, maltose, treharose or soluble starch as a substrate in 10 mM phosphate buffer (pH 7.0) buffer at a final concentration of 100 mM (0.5% for soluble starch) was added to 10 μl of a test sample solution appropriately diluted with the same buffer. 10 μl of the crude enzyme solution prepared from rat small intestine was added thereto. The mixture was reacted at 37° C. for 20 minutes.
The enzymatic reaction was assessed by adding 3 ml of a reagent for glucose measurement (Wako Pure Chemical Industries) to the reaction mixture, reacting at 37° C. for 5 minutes and then measuring the absorbance at 505 nm as the glucose content in the mixture.
The inhibitory activity of DGE on the digestion of each substrate by α-glycosidase was measured using DGE at four different concentrations according to the above-mentioned method. The activity of inhibiting α-glycosidase was expressed as a relative activity (%) defining the activity of the control without DGE as 100%.

Test [3] relates to Mouse melanoma cell B16BL6. The test can be described thus: Melanogenesis inhibition test. Format: cell-based. Conditions: B16BL6, absorbance at 400 nm. The procedure:
Mouse melanoma cell B16BL6 suspended in RPMI 1640 medium containing 10% fetal bovine serum was dispensed into a 6-well plate at 5×10^4 cells/well/2 ml medium and the plate was incubated at 37° C. On the 2nd day, 100 μl of a DGE solution (2 mg/ml to 0.2 mg/ml) was added thereto. On the 7th day, the medium was exchanged and, at the same time, 100 μl of the DGE solution (2 mg/ml to 0.2 mg/ml) was added thereto. On the 8th day, the cells were harvested. After DNA, RNA and protein were digested, the absorbance at 400 nm was measured to determine an activity of inhibiting melanogenesis.
Briefly, after removing the medium by aspiration, 0.3 ml of 0.25% trypsin dissolved in 20 mM EDTA solution was added to each well and the plate was incubated at 37° C. for 10 minutes. 2 ml of fresh medium was then added to the well and the cells were suspended. The suspension was transferred to a tube. After the medium was removed by centrifugation, the cells were suspended in 2 ml of PBS and centrifuged again. After the supernatant was removed, 30 μl of 50 mM sodium acetate buffer (pH 5.0) containing 5 mM manganese chloride and 1 μl of 70,000 U/ml DNase I (Takara Shuzo) were added to the cells. The mixture was mixed thoroughly and then incubated at 37° C. for 2 hours to digest DNA. 1 μl of 10 mg/ml ribonuclease A (Sigma) was then added to the mixture and the resultant mixture was incubated at 50° C. for 1 hour to digest RNA. Finally, 100 mM Tris-hydrochloride buffer (pH 7.8) containing 100 μg/ml proteinase K (Sigma), 0.1% Triton X and 10 mM EDTA was added thereto to make the total volume to 200 μl for 2×10^6 cells. After the mixture was incubated at 37° C. for 16 hours, the absorbance at 400 nm was measured.

Test [4] has as its system 70-kDa heat shock protein. The test can be described thus: Heat shock protein induction test. To be noted: HL-60 cells; for activity of inducing heat shock protein: 70-kDa heat shock protein; for Induction of heat shock protein: 6 hours. The arrangement: key to Induction of heat shock protein: − means that no induction was observed; + represents the induction level. Increased number of + means increased induction; + +: + represents the induction level. Increased number of + means increased induction; + + +: + represents the induction level. Increased number of + means increased induction; + + + +: + represents the induction level. Increased number of + means increased induction. Format: cell-based. The procedure:
5 ml of RPMI 1640 medium containing 10% fetal bovine serum and HL-60 cells at a concentration of 2×10^5 cells/ml was placed in each well of a 6-well plate. The plate was incubated at 37° C. for 24 hours in the presence of 5% CO2. DGE at a final concentration of 0, 6.25, 12.5, 25, 50 or 100 μM was then added thereto. The incubation was continued for additional 6 hours.
After cultivation, the cell number was counted.
The cells were harvested by centrifugation, washed with PBS to prepare DGE-treated cells. Cells that were cultured in the same manner after heated at 45° C. for 10 minutes were also prepared.
These treated cells were used for SDS-PAGE according to the method as described in Molecular Cloning [Cold Spring Harbor Laboratory Press (1989)]. The treated cells were suspended in SDS-PAGE Sample buffer at a concentration of 2.5×10^6 cells/ml. The cell suspensions were treated at 100° C. for 10 minutes. 5 μl each of the cell suspensions was applied to two SDS-PAGE gels (5% stacking gel, 10% separation gel) and electrophoresed. One of the gels was subjected to Coomassie staining. The other gel was blotted onto a polyvinylidene difluoride transfer membrane [Immobilon™, Millipore, Cat. # IPVH000-10]. The membrane was blocked at 4° C. overnight using Block Ace (Dainippon Pharmaceutical, Cat. # UK-B25).
The blocked membrane was reacted with a monoclonal antibody HSP72/73(Ab-1) (Oncogene Research Products, Cat. # HSP01), which specifically reacts with heat-inducible 70-kDa heat shock protein. The membrane was washed with TBS containing 0.05% Tween 20 followed by TBS. The membrane was then reacted with a peroxidase-conjugated secondary antibody HRT-rabbit anti-mouse IgG (H+L) (Zymed Laboratories, Inc., Cat. # 61-6520), and then washed as described above. The membrane reacted with the primary and secondary antibodies was reacted with a chemiluminol reagent, Renaissance™ (Dupont NEN, Cat. # NEL-100). The membrane was then exposed to an X-ray film to confirm the induction of 70-kDa heat shock protein.

Where [5] appears, read: DGE at 2 mg/kg intraperitoneally for 4 days.
The mark [6] stands for this setting: DGE at 20 mg/kg intraperitoneally for 4 days.

Consider “5-L-glutathion-S-yl-2-hydroxy-3,7-dioxabicyclo[2.2.2]octan-1-ol [DGE-GSH]”, for which the carcinostatic activity result in test [1] was “also exhibited similar activities”. In addition, the “activities of inhibiting α-glycosidase” value in test [2] is listed as “also exhibited similar activities of inhibiting α-glycosidase”. In addition, the “activity of inhibiting melanogenesis” value in test [3] is listed as “also exhibited similar activities”. Besides, the “activity of inducing heat shock protein” value in test [4] is “also exhibited similar activities of inducing heat shock protein”.

As for `O=C1C=CC(CO)OC1O` [DGE, L-glycero-1,5-epoxy-1αβ,6-dihydroxy-cis-hex-3-en-2-one], the values for the 30-day survival number in test [1] (setting [5]) and in test [1] (setting [6]) were 1 and 3, respectively. Also, the entries for the “Average days of survival” value in test [1] (setting [5]) and in test [1] (setting [6]) were 23.7 days and 28.0 days, respectively. In addition, in test [1], the carcinostatic activity entry was “exhibited a carcinostatic activity”. The relative activity is reported as 96% in test [2] (substrate Maltose, DGE 0.2 mM); 97% in test [2] (substrate Maltose, DGE 0.5 mM); 100% in test [2] (substrate Maltose, DGE 1.0 mM); 96% in test [2] (substrate Maltose, DGE 2.0 mM); 100% in test [2] (substrate Soluble starch, DGE 0.2 mM); 95% in test [2] (substrate Soluble starch, DGE 0.5 mM). Also, the relative activity in test [2] (substrate Soluble starch, DGE 1.0 mM) is 91%; in test [2] (substrate Soluble starch, DGE 2.0 mM), 92%; in test [2] (substrate Treharose, DGE 0.2 mM) it was 98%; in test [2] (substrate Treharose, DGE 0.5 mM), 96%; in test [2] (substrate Treharose, DGE 1.0 mM), 99%; in test [2] (substrate Treharose, DGE 2.0 mM) it was 100%. Moreover, in test [3], the “activity of inhibiting melanogenesis” value is “an activity of inhibiting melanogenesis was observed”. The “activity of inducing heat shock protein” value in test [4] is reported as “the induction of 70-kDa heat shock protein by DGE was observed”. Also, the “Induction of heat shock protein” value was “+” in test [4] (6.25 μM DGE); “+” in test [4] (12.5 μM DGE); “+ +” in test [4] (25.0 μM DGE); “+ + +” in test [4] (50.0 μM DGE); “+ + + +” in test [4] (100 μM DGE).

Consider `O=C1C=CC(CO)OC1O` [κ-DGE, D-glycero-1,5-epoxy-1αβ,6-dihydroxy-cis-hex-3-en-2-one], for which the carcinostatic activity entry in test [1] is “also exhibited similar activities”. In test [2], the “activities of inhibiting α-glycosidase” value is reported as “also exhibited similar activities of inhibiting α-glycosidase”. In test [3], the “activity of inhibiting melanogenesis” value is “also exhibited similar activities”. In addition, the “activity of inducing heat shock protein” value in test [4] is “also exhibited similar activities of inducing heat shock protein”.
